Assay results taken from patent USRE38825E1, “Glyphosate tolerant plants” (Monsanto Technology LLC, priority 1990, dated 2005).

Key:
Format in all cases: biochemical, bacterial isolate LBAA (Pseudomonas strain LBAA)
[1] = target: LBAA glyphosate oxidoreductase variant w1v2w3 (SER84, ARG153, HIS334) (Ochrobactrum sp. G-1, UniProt D2KI28, K153R/S2A); assay: Kinetic analysis of domain switches, clone w1v2w3; details: substrate glyphosate
Description: (§1) The mutagenesis procedure used was that of Mn++-poisoned PCR and the template was a linearized glyphosate oxidoreductase gene plasmid containing the synthetic glyphosate oxidoreductase gene (SEQ ID NO:8). The oligonucleotide primers used were homologous to regions in the vector and flanking the glyphosate oxidoreductase gene. The PCR conditions employed were as follows: 1 minute at 94° C., 2 minutes at 55° C., and 3 minutes at 72° C. and with 35 cycles. A 5:1 ratio of dCTP+dGTP+TTP to dATP was used. The reactions contained MnCl2 at 125, 250, 375, or 500 μM. After the reaction, the amplified product was recloned into a vector containing a weak E. coli promoter. This vector was a pBR327 derivative containing the araBAD promoter and suitable cloning sites. […] Growth rates were determined by measuring A550 over a 96 hour period. […] Protein concentrations were determined using the Bio-Rad protein dye-binding assay. […] Ten minutes was determined to be the optimal time for the enzyme assay using 10 μg lysate. […] Enzyme activity was determined from the amount of glyoxylate-DNPH adduct formed by measuring A520 against a standard of glyoxylate. […] The Km and Vmax were determined from Lineweaver Burk, Eadie-Hofstee and hyperbolic kinetic plots. […]

[2] = target: LBAA glyphosate oxidoreductase variant w1v2v3 (SER84, ARG153, ARG334) (Ochrobactrum sp. G-1, UniProt D2KI28, H334R/K153R/S2A); assay: Kinetic analysis of domain switches, clone w1v2v3; details: substrate glyphosate
Description: as §1

[3] = target: LBAA glyphosate oxidoreductase variant w1w2v3 (SER84, LYS153, ARG334) (Ochrobactrum sp. G-1, UniProt D2KI28, H334R/S2A); assay: Kinetic analysis of domain switches, clone w1w2v3; details: substrate glyphosate
Description: as §1

[4] = target: LBAA glyphosate oxidoreductase variant v1w2v3 (GLY84, LYS153, ARG334) (Ochrobactrum sp. G-1, UniProt D2KI28, H334R/S2A/S84G); assay: Kinetic analysis of domain switches, clone v1w2v3; details: substrate glyphosate
Description: as §1

[5] = target: LBAA glyphosate oxidoreductase variant v1w2w3 (GLY84, LYS153, HIS334) (Ochrobactrum sp. G-1, UniProt D2KI28, S2A/S84G); assay: Kinetic analysis of domain switches, clone v1w2w3; details: substrate glyphosate
Description: as §1

[6] = target: LBAA glyphosate oxidoreductase variant v1v2w3 (GLY84, ARG153, HIS334) (Ochrobactrum sp. G-1, UniProt D2KI28, K153R/S2A/S84G); assay: Kinetic analysis of domain switches, clone v1v2w3; details: substrate glyphosate
Description: as §1

[7] = target: LBAA glyphosate oxidoreductase variant ARG 334 (His334 to Arg) (Ochrobactrum sp. G-1, UniProt D2KI28, H334R/S2A); assay: Kinetic analysis of glyphosate oxidoreductase variant ARG 334 (site-directed mutagenesis)

In the case of `O=C(O)CNCP(=O)(O)O` [glyphosate, N-phosphonomethyl-glycine], the VmKm [1] was 0.026, the VmKm [2] was 0.28 and the VmKm [3] was 0.375. It also gave a VmKm [4] of 0.21, a VmKm [5] of 0.027 and a VmKm [6] of 0.021. For the same molecule, the “VmKm (Glyp)” value [7] was “.23”.
